Values after ≈ are worked out from the molar mass of the structure shown.
System: human platelet aggregation (ADP-induced)
Format: cell-based
Details: human platelet rich plasma; ADP final concentration 0.5 mcg/mL; read-out: Inhibition of Human Platelet Aggregation IC50 Vs ADP

| IC50 | SMILES |
| --- | --- |
| 0.41 µg/mL (≈ 0.955 µM) | COC(=O)COc1cccc(CCc2nc(-c3ccccc3)c(-c3ccccc3)s2)c1 [Example 1, Methyl (3-[2-(4,5-diphenyl-2-thiazolyl)ethyl]phenoxy]acetate] |
| 0.36 µg/mL (≈ 0.866 µM) | O=C(O)COc1cccc(CCc2nc(-c3ccccc3)c(-c3ccccc3)s2)c1 [Example 2, [3-[2-(4,5-Diphenyl-2-thiazolyl)ethyl]phenoxy]acetic Acid] |

Source: patent US5077305A, “Thiazole carboxylic acids and esters” (Bristol-Myers Squibb Co., priority 1990, dated 1991)
